Experimental data as given in US6479435B1, “Diaryl ethers and processes for their preparation and herbicidal and desiccant compositions containing them” (ISK Americas Incorporated, priority 1997, dated 2002).

Legend:
Type in all cases: in vivo
[1] = tested on: soybean (Glycine max L., var. Pella 86, SOY); experiment: Post-emerge greenhouse test, crop damage rating; design: key to crop damage rating SOY: 0-100 scale: 0 = no damage, 100 = complete death of all plants; details: 14 days after application, scale 0-100
Method in brief: (§1)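 Plants at the 2-3 leaf stage, sown 8-21 days earlier, were track-sprayed post-emergence with compound in acetone plus 0.25% v/v non-ionic surfactant at 63-1000 g ai/ha (187 l/ha). Damage was rated at 14 days on a 0-100 scale (0 none, 100 all plants dead), for both crop injury and weed control.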

[2] = tested on: common ragweed (Ambrosia artemisiifolia L., AMBEL); experiment: Post-emerge greenhouse herbicide test, phytotoxicity rating; details: 14 days after application, scale 0-100
Method in brief: as §1

[3] = tested on: soybean (Glycine max L., var. Pella 86, SOY); experiment: Pre-emerge greenhouse test, crop damage rating; design: key to SOY crop damage rating: 0 = no damage, 100 = complete death of all plants; details: 14 days after application, rating scale 0-100
Method in brief: (§2)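 Seeds sown in sandy loam one day before track-sprayer application of acetone solutions at 125–1000 g ai/ha (187 l/ha), then surface-watered to incorporate and bottom-watered. Injury scored visually at 14 days on a 0–100 scale (0 no damage, 100 complete death).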

[4] = tested on: velvetleaf (Abutilon theophrasti, ABUTH); experiment: Post-emerge greenhouse herbicide test, phytotoxicity rating; details: 14 days after application, scale 0-100
Method in brief: as §1

[5] = tested on: large crabgrass (Digitaria sanguinalis, DIGSA); experiment: as above; details: 14 days after application, scale 0-100
Method in brief: as §1

[6] = tested on: lambsquarters (Chenopodium album, CHEAL); experiment: as above; details: 14 days after application, scale 0-100
Method in brief: as §1

[7] = tested on: ivyleaf morningglory (Ipomoea hederacea, IPOHE); experiment: as above; details: 14 days after application, scale 0-100
Method in brief: as §1

[8] = tested on: green foxtail (Setaria viridis, SETVI); experiment: as above; details: 14 days after application, scale 0-100
Method in brief: as §1

[9] = tested on: redroot pigweed (Amaranthus retroflexus, AMARE); experiment: as above; details: 14 days after application, scale 0-100
Method in brief: as §1

[10] = tested on: Johnsongrass (Sorghum halepense, SORHA); experiment: as above; details: 14 days after application, scale 0-100
Method in brief: as §1

[11] = tested on: barnyardgrass (Echinochloa crusgalli, ECHCG); experiment: as above; details: 14 days after application, scale 0-100
Method in brief: as §1

[12] = tested on: field corn (Zea mays L., var. Dekalb 535, CORN); experiment: Pre-emerge greenhouse test, crop damage rating; details: 14 days after application, rating scale 0-100
Method in brief: as §2

[13] = tested on: upland rice (Oryza sp., var.Tebonnet, RICE); experiment: Pre-emerge greenhouse test, crop damage rating; details: 14 days after application, rating scale 0-100
Method in brief: as §2

[14] = tested on: field corn (Zea mays L., var. Dekalb 535, CORN); experiment: Post-emerge greenhouse test, crop damage rating; details: 14 days after application, scale 0-100
Method in brief: as §1

[15] = tested on: upland rice (Oryza sp., var.Tebonnet, RICE); experiment: Post-emerge greenhouse test, crop damage rating; details: 14 days after application, scale 0-100
Method in brief: as §1

[16] = tested on: velvetleaf (Abutilon theophrasti, ABUTH); experiment: Pre-emerge greenhouse herbicide test, phytotoxicity rating; details: 14 days after application, rating scale 0-100
Method in brief: as §2

[17] = tested on: common ragweed (Ambrosia artemisiifolia L., AMBEL); experiment: as above; details: 14 days after application, rating scale 0-100
Method in brief: as §2

[18] = tested on: large crabgrass (Digitaria sanguinalis, DIGSA); experiment: as above; details: 14 days after application, rating scale 0-100
Method in brief: as §2

[19] = tested on: lambsquarters (Chenopodium album, CHEAL); experiment: as above; details: 14 days after application, rating scale 0-100
Method in brief: as §2

[20] = tested on: sicklepod (Cassia obtusifolia, CASOB); experiment: as above; details: 14 days after application, rating scale 0-100
Method in brief: as §2

[21] = tested on: ivyleaf morningglory (Ipomoea hederacea, IPOHE); experiment: as above; details: 14 days after application, rating scale 0-100
Method in brief: as §2

[22] = tested on: green foxtail (Setaria viridis, SETVI); experiment: as above; details: 14 days after application, rating scale 0-100
Method in brief: as §2

[23] = tested on: redroot pigweed (Amaranthus retroflexus, AMARE); experiment: as above; details: 14 days after application, rating scale 0-100
Method in brief: as §2

[24] = tested on: Johnsongrass (Sorghum halepense, SORHA); experiment: as above; details: 14 days after application, rating scale 0-100
Method in brief: as §2

[25] = tested on: barnyardgrass (Echinochloa crusgalli, ECHCG); experiment: as above; details: 14 days after application, rating scale 0-100
Method in brief: as §2

O=c1n(-c2cc(Oc3ccccn3)c(Cl)cc2F)c(=S)n2n1CCCC2 [Compound 8-17]
crop damage rating SOY ([1]; rate 63 g ai/ha): 90 | crop damage rating SOY ([1]; rate 500 g ai/ha): 100 | phytotoxicity rating AMBEL ([2]; rate 63 g ai/ha): 60 | phytotoxicity rating AMBEL ([2]; rate 500 g ai/ha): 100 | SOY crop damage rating ([3]; Rate 125 g al/ha): 0 | SOY crop damage rating ([3]; Rate 500 g al/ha): 95 | phytotoxicity rating ABUTH ([4]; rate 63 g ai/ha): 100 | phytotoxicity rating ABUTH ([4]; rate 500 g ai/ha): 100 | phytotoxicity rating DIGSA ([5]; rate 63 g ai/ha): 50 | phytotoxicity rating DIGSA ([5]; rate 500 g ai/ha): 90 | phytotoxicity rating CHEAL ([6]; rate 63 g ai/ha): 99 | phytotoxicity rating CHEAL ([6]; rate 500 g ai/ha): 100 | phytotoxicity rating IPOHE ([7]; rate 63 g ai/ha): 100 | phytotoxicity rating IPOHE ([7]; rate 500 g ai/ha): 100 | phytotoxicity rating SETVI ([8]; rate 63 g ai/ha): 50 | phytotoxicity rating SETVI ([8]; rate 500 g ai/ha): 90 | phytotoxicity rating AMARE ([9]; rate 63 g ai/ha): 100 | phytotoxicity rating AMARE ([9]; rate 500 g ai/ha): 100 | phytotoxicity rating SORHA ([10]; rate 63 g ai/ha): 50 | phytotoxicity rating SORHA ([10]; rate 500 g ai/ha): 100 | phytotoxicity rating ECHCG ([11]; rate 63 g ai/ha): 90 | phytotoxicity rating ECHCG ([11]; rate 500 g ai/ha): 100 | CORN crop damage rating ([12]; Rate 125 g al/ha): 10 | CORN crop damage rating ([12]; Rate 500 g al/ha): 30 | RICE crop damage rating ([13]; Rate 125 g al/ha): 50 | RICE crop damage rating ([13]; Rate 500 g al/ha): 95 | crop damage rating CORN ([14]; rate 63 g ai/ha): 20 | crop damage rating CORN ([14]; rate 500 g ai/ha): 10 | crop damage rating RICE ([15]; rate 63 g ai/ha): 40 | crop damage rating RICE ([15]; rate 500 g ai/ha): 90 | ABUTH phytotoxicity rating ([16]; Rate 125 g al/ha): 100 | ABUTH phytotoxicity rating ([16]; Rate 500 g al/ha): 100 | AMBEL phytotoxicity rating ([17]; Rate 125 g al/ha): 100 | AMBEL phytotoxicity rating ([17]; Rate 500 g al/ha): 100 | DIGSA phytotoxicity rating ([18]; Rate 125 g al/ha): 100 | DIGSA phytotoxicity rating ([18]; Rate 500 g al/ha): 100 | CHEAL phytotoxicity rating ([19]; Rate 125 g al/ha): 100 | CHEAL phytotoxicity rating ([19]; Rate 500 g al/ha): 100 | CASOB phytotoxicity rating ([20]; Rate 125 g al/ha): 100 | CASOB phytotoxicity rating ([20]; Rate 500 g al/ha): 80 | IPOHE phytotoxicity rating ([21]; Rate 125 g al/ha): 80 | IPOHE phytotoxicity rating ([21]; Rate 500 g al/ha): 99 | SETVI phytotoxicity rating ([22]; Rate 125 g al/ha): 100 | SETVI phytotoxicity rating ([22]; Rate 500 g al/ha): 100 | AMARE phytotoxicity rating ([23]; Rate 125 g al/ha): 100 | AMARE phytotoxicity rating ([23]; Rate 500 g al/ha): 100 | SORHA phytotoxicity rating ([24]; Rate 125 g al/ha): 50 | SORHA phytotoxicity rating ([24]; Rate 500 g al/ha): 100 | ECHCG phytotoxicity rating ([25]; Rate 125 g al/ha): 85 | ECHCG phytotoxicity rating ([25]; Rate 500 g al/ha): 100

CS(=O)(=O)c1cccnc1Oc1cc(-n2c(=O)n3n(c2=S)CCCC3)c(F)cc1Cl [Compound 8-21]
crop damage rating SOY ([1]; rate 63 g ai/ha): 90 | crop damage rating SOY ([1]; rate 500 g ai/ha): 100 | phytotoxicity rating AMBEL ([2]; rate 63 g ai/ha): 60 | phytotoxicity rating AMBEL ([2]; rate 500 g ai/ha): 90 | SOY crop damage rating ([3]; Rate 125 g al/ha): 0 | SOY crop damage rating ([3]; Rate 500 g al/ha): 80 | phytotoxicity rating ABUTH ([4]; rate 63 g ai/ha): 100 | phytotoxicity rating ABUTH ([4]; rate 500 g ai/ha): 100 | phytotoxicity rating DIGSA ([5]; rate 63 g ai/ha): 0 | phytotoxicity rating DIGSA ([5]; rate 500 g ai/ha): 60 | phytotoxicity rating CHEAL ([6]; rate 63 g ai/ha): 99 | phytotoxicity rating CHEAL ([6]; rate 500 g ai/ha): 100 | phytotoxicity rating IPOHE ([7]; rate 63 g ai/ha): 90 | phytotoxicity rating IPOHE ([7]; rate 500 g ai/ha): 100 | phytotoxicity rating SETVI ([8]; rate 63 g ai/ha): 0 | phytotoxicity rating SETVI ([8]; rate 500 g ai/ha): 40 | phytotoxicity rating AMARE ([9]; rate 63 g ai/ha): 100 | phytotoxicity rating AMARE ([9]; rate 500 g ai/ha): 100 | phytotoxicity rating SORHA ([10]; rate 63 g ai/ha): 10 | phytotoxicity rating SORHA ([10]; rate 500 g ai/ha): 70 | phytotoxicity rating ECHCG ([11]; rate 63 g ai/ha): 0 | phytotoxicity rating ECHCG ([11]; rate 500 g ai/ha): 70 | CORN crop damage rating ([12]; Rate 125 g al/ha): 0 | CORN crop damage rating ([12]; Rate 500 g al/ha): 10 | RICE crop damage rating ([13]; Rate 125 g al/ha): 40 | RICE crop damage rating ([13]; Rate 500 g al/ha): 95 | crop damage rating CORN ([14]; rate 63 g ai/ha): 10 | crop damage rating CORN ([14]; rate 500 g ai/ha): 0 | crop damage rating RICE ([15]; rate 63 g ai/ha): 50 | crop damage rating RICE ([15]; rate 500 g ai/ha): 60 | ABUTH phytotoxicity rating ([16]; Rate 125 g al/ha): 100 | ABUTH phytotoxicity rating ([16]; Rate 500 g al/ha): 100 | AMBEL phytotoxicity rating ([17]; Rate 125 g al/ha): 70 | AMBEL phytotoxicity rating ([17]; Rate 500 g al/ha): 90 | DIGSA phytotoxicity rating ([18]; Rate 125 g al/ha): 70 | DIGSA phytotoxicity rating ([18]; Rate 500 g al/ha): 100 | CHEAL phytotoxicity rating ([19]; Rate 125 g al/ha): 100 | CHEAL phytotoxicity rating ([19]; Rate 500 g al/ha): 100 | CASOB phytotoxicity rating ([20]; Rate 125 g al/ha): 70 | CASOB phytotoxicity rating ([20]; Rate 500 g al/ha): 100 | IPOHE phytotoxicity rating ([21]; Rate 125 g al/ha): 90 | IPOHE phytotoxicity rating ([21]; Rate 500 g al/ha): 100 | SETVI phytotoxicity rating ([22]; Rate 125 g al/ha): 99 | SETVI phytotoxicity rating ([22]; Rate 500 g al/ha): 100 | AMARE phytotoxicity rating ([23]; Rate 125 g al/ha): 100 | AMARE phytotoxicity rating ([23]; Rate 500 g al/ha): 100 | SORHA phytotoxicity rating ([24]; Rate 125 g al/ha): 50 | SORHA phytotoxicity rating ([24]; Rate 500 g al/ha): 100 | ECHCG phytotoxicity rating ([25]; Rate 125 g al/ha): 40 | ECHCG phytotoxicity rating ([25]; Rate 500 g al/ha): 90
